Holding throughout (type): biochemical
The target of one experiment is Pim-2 (Homo sapiens (Human), UniProt Q9P1W9). The experiment is described as follows: Pim-2 kinase assay. The following applies: 1 mM ATP; read-out: Pim2 IC50.
The target in the next experiment is Pim-3 (Homo sapiens (Human), UniProt Q86V86). As to the kind of experiment: Pim-3 kinase assay. The following applies: 1 mM ATP; read-out: Pim3 IC50. In short, it runs like this:
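AlphaScreen-type assay: […] Pim-3 phosphorylates 0.05 μM biotin-BAD peptide with 1 mM ATP, 1 h at 25 °C, pH 7.5 Tris buffer with MgCl2 and DTT. EDTA stop with phospho-BAD (Ser112) antibody and donor/acceptor beads, 1 h dark incubation before reading.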

Another experiment concerns the target Pim-1 (Homo sapiens (Human), UniProt P11309). As to the kind of experiment: Pim-1 kinase assay. The note with it: 1 mM ATP; read-out: Pim1 IC50. Here is the method:
Supplementation of the STOP buffer with beads and stopping the reactions were done under reduced light. Prior to the stopping reactions STOP buffer with beads was pre-incubated for 1 h in the dark at room temperature. After stopping the reactions, plates were incubated for 1 h in the dark at room temperature before reading on a PHERAstar FS plate reader (BMG Labtech) under reduced light.

Our source for the IC50 values is patent US10265307B2, “Thiazolecarboxamides and pyridinecarboxamide compounds useful as Pim kinase inhibitors” (Incyte Corporation, priority 2013, dated 2019).

pIC50: −log10 of the molar value.

Pim-2, sequence (Q9P1W9 whole entry): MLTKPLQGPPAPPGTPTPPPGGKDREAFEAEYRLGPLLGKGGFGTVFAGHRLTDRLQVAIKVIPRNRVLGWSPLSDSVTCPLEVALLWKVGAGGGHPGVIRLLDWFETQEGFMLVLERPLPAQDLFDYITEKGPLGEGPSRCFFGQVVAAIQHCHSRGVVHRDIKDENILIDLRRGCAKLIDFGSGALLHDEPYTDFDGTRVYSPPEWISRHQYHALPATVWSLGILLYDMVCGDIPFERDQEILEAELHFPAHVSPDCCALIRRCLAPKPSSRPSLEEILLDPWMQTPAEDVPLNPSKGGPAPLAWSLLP
Pim-1, sequence (P11309 whole entry): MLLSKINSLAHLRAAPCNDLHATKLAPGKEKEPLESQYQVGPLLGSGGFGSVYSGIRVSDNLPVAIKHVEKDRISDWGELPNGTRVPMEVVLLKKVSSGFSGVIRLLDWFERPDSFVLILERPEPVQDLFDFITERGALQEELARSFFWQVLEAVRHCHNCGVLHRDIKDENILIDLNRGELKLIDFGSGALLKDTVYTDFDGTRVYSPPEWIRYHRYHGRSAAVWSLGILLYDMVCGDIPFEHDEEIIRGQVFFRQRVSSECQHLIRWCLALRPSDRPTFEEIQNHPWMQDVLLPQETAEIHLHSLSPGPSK

Consider `C[C@H]1CN(c2c(NC(=O)c3nc(-c4c(F)cccc4F)c(F)cc3N)cnc3c2CCO3)C[C@@H](N)[C@@H]1O` [Example 71, 3-Amino-N-{4-[(3R,4R,5S)-3-amino-4-hydroxy-5-methylpiperidin-1-yl]-2,3-dihydrofuro[2,3-b]pyridin-5-yl}-6-(2,6-difluorophenyl)-5-fluoropyridine-2-carboxamide], for which the pIC50 at Pim-2, at Pim-3 and at Pim-1 was no less than 7.00 each time.
`C[C@@H]1C[C@H](N)CN(c2c(NC(=O)c3ccc(F)c(-c4c(F)cc(C(C)(C)O)cc4F)n3)cnc3c2CCC3O)C1` (single isomer, unassigned) [67 (Diastereoisomer 2)]: the pIC50 on Pim-2, at Pim-3 and on Pim-1 was no less than 7.00 throughout.
As for `C[C@@H]1C[C@H](N)CN(c2c(NC(=O)c3ccc(F)c(-c4c(F)cc(C(C)(C)O)cc4F)n3)cnc3c2CCC3O)C1` (single isomer, unassigned) [67 (Diastereoisomer 1)], the negative logarithm of the IC50 (pIC50) at Pim-2, at Pim-3 and at Pim-1 was no less than 7.00 throughout.
Consider `COCc1cc(F)c(-c2nc(C(=O)Nc3cnc4c(c3N3C[C@@H](N)[C@H](O)[C@@H](C)C3)CCC4O)ccc2F)c(F)c1` (single isomer, unassigned) [66 (Diastereoisomer 1)], for which the pIC50 on Pim-2, on Pim-3 and at Pim-1 was no less than 7.00 each time.
For `Nc1sc(-c2c(F)cccc2F)nc1C(=O)Nc1cnc2c(c1N1CCC[C@H](N)C1)CCC2` [Example 14, 5-Amino-N-{4-[(3S)-3-aminopiperidin-1-yl]-6,7-dihydro-5H-cyclopenta[b]pyridin-3-yl}-2-(2,6-difluorophenyl)-1,3-thiazole-4-carboxamide], the pIC50 on Pim-2, at Pim-3 and on Pim-1 was no less than 7.00 throughout.
Take `N[C@H]1CCCN(c2c(NC(=O)c3csc(-c4c(F)cccc4F)n3)cnc3c2CCC3O)C1` (single isomer, unassigned) [16 (Diastereoisomer 1)]: the pIC50 is less than 5.70 on Pim-2, no less than 7.00 at Pim-3 and no less than 7.00 on Pim-1.
`Nc1sc(-c2c(F)cccc2F)nc1C(=O)Nc1cnc2ccsc2c1N1CCC[C@H](N)C1` [Example 5, 5-Amino-N-{7-[(3S)-3-aminopiperidin-1-yl]thieno[3,2-b]pyridin-6-yl}-2-(2,6-difluorophenyl)-1,3-thiazole-4-carboxamide]: the pIC50 at Pim-2, at Pim-3 and at Pim-1 was no less than 7.00 each time.
On to `C[C@H]1CN(c2c(NC(=O)c3nc(-c4c(F)cccc4F)sc3N)cnc3c2CCO3)C[C@@H](N)[C@]1(C)O` [Example 76, 5-Amino-N-{4-[(3R,4R,5S)-3-amino-4-hydroxy-4,5-dimethylpiperidin-1-yl]-2,3-dihydrofuro[2,3-b]pyridin-5-yl}-2-(2,6-difluorophenyl)-1,3-thiazole-4-carboxamide], for which the pIC50 at Pim-2, on Pim-3 and at Pim-1 was no less than 7.00 in each case.
`N[C@H]1CCCN(c2c(NC(=O)c3ccc(F)c(-c4c(F)cccc4F)n3)cnc3c2CCO3)C1` [Example 11, N-{4-[(3S)-3-Aminopiperidin-1-yl]-2,3-dihydrofuro[2,3-b]pyridin-5-yl}-6-(2,6-difluorophenyl)-5-fluoropyridine-2-carboxamide]: the results for the pIC50 at Pim-2, on Pim-3 and on Pim-1 were 6.00 to 7.00, no less than 7.00 and no less than 7.00, respectively.
Turning to `C[C@H]1CN(c2c(NC(=O)c3nc(-c4c(F)cccc4F)sc3N)cnc3c2CCC3O)C[C@@H](N)[C@@H]1O` (single isomer, unassigned) [49 (Diastereoisomer 1)], the pIC50 on Pim-2, at Pim-3 and on Pim-1 was no less than 7.00 each time.
In the case of `Nc1sc(-c2c(F)cccc2F)nc1C(=O)Nc1cnc2c(c1N1CC[C@@H](O)[C@H](N)C1)CCC2` (single isomer, unassigned) [Example 25, 5-Amino-N-{4-[3,4-trans-3-amino-4-hydroxypiperidin-1-yl]-6,7-dihydro-5H-cyclopenta[b]pyridin-3-yl}-2-(2,6-difluorophenyl)-1,3-thiazole-4-carboxamide], the pIC50 on Pim-2, at Pim-3 and at Pim-1 was no less than 7.00 each time.
As for `N[C@@H]1CN(c2c(NC(=O)c3ccc(F)c(-c4c(F)cccc4F)n3)cnc3c2CCC3O)C[C@H](C2CC2)[C@H]1O` (single isomer, unassigned) [68 (Diastereoisomer 2)], the pIC50 on Pim-2, at Pim-3 and at Pim-1 was no less than 7.00 each time.
Consider `Nc1sc(-c2c(F)cccc2F)nc1C(=O)Nc1cnc2c(c1N1C[C@@H](N)C[C@@H](C(F)(F)F)C1)CCO2` [Example 42, 5-Amino-N-{4-[(3S,5R)-3-amino-5-(trifluoromethyl)piperidin-1-yl]-2,3-dihydrofuro[2,3-b]pyridin-5-yl}-2-(2,6-difluorophenyl)-1,3-thiazole-4-carboxamide], for which the pIC50 at Pim-2, on Pim-3 and at Pim-1 was no less than 7.00 in each case.
For the compound `Nc1sc(-c2c(F)cccc2F)nc1C(=O)Nc1cnc2c(c1N1CCC[C@H](N)C1)CCO2` [Example 9, 5-Amino-N-{4-[(3S)-3-aminopiperidin-1-yl]-2,3-dihydrofuro[2,3-b]pyridin-5-yl}-2-(2,6-difluorophenyl)-1,3-thiazole-4-carboxamide], the negative-log IC50 (pIC50) on Pim-2, on Pim-3 and at Pim-1 was no less than 7.00 in each case.
Regarding `Nc1cc(F)c(-c2c(F)cccc2F)nc1C(=O)Nc1cnc2c(c1N1CCC[C@H](N)C1)CCC2O` (single isomer, unassigned) [23 (Diastereoisomer 2)], the pIC50 on Pim-2, at Pim-3 and at Pim-1 was no less than 7.00 in each case.
`C[C@H]1CN(c2c(NC(=O)c3ccc(F)c(-c4c(F)cccc4F)n3)cnc3c2CCC3O)C[C@@H](N)C1(C)O` (single isomer, unassigned) [63 (Diastereoisomer 4)]: the pIC50 at Pim-2, at Pim-3 and at Pim-1 was no less than 7.00 in each case.
As to `C[C@H]1CN(c2c(NC(=O)c3ccc(F)c(-c4c(F)cccc4F)n3)cnc3c2CCC3O)C[C@@H](N)C1(C)O` (single isomer, unassigned) [63 (Diastereoisomer 2)], the pIC50 at Pim-2, on Pim-3 and on Pim-1 was no less than 7.00 in each case.
Regarding `C[C@@H]1C[C@H](N)CN(c2c(NC(=O)c3nc(-c4c(F)cccc4F)c(F)cc3N)cnc3c2CCC3O)C1` (single isomer, unassigned) [46 (Diastereoisomer 1)], the pIC50 at Pim-2, at Pim-3 and at Pim-1 was no less than 7.00 each time.
On to `CCOc1cc(F)c(-c2nc(C(=O)Nc3cnc4c(c3N3C[C@@H](N)[C@H](O)[C@@H](C)C3)CCC4O)ccc2F)c(F)c1` (single isomer, unassigned) [51 (Diastereoisomer 2)], for which the pIC50 on Pim-2, at Pim-3 and at Pim-1 was no less than 7.00 in each case.
In the case of `COc1ccc(F)c(-c2nc(C(=O)Nc3cnc4c(c3N3CCC[C@H](N)C3)CCC4O)c(N)s2)c1F` (single isomer, unassigned) [53 (Diastereoisomer 1)], the pIC50 on Pim-2, on Pim-3 and on Pim-1 was no less than 7.00 throughout.
On to `Nc1sc(-c2c(F)cccc2F)nc1C(=O)Nc1cnc2c(c1N1CCC[C@H](N)C1)CCC2O` (single isomer, unassigned) [15 (Diastereoisomer 2)], for which the pIC50 on Pim-2, on Pim-3 and on Pim-1 was no less than 7.00 each time.
Regarding `C[C@H]1CN(c2c(NC(=O)c3nc(-c4c(F)cccc4F)sc3N)cnc3c2CCO3)C[C@@H](N)[C@@]1(C)O` [Example 75, 5-Amino-N-{4-[(3R,4S,5S)-3-amino-4-hydroxy-4,5-dimethylpiperidin-1-yl]-2,3-dihydrofuro[2,3-b]pyridin-5-yl}-2-(2,6-difluorophenyl)-1,3-thiazole-4-carboxamide], the pIC50 on Pim-2, at Pim-3 and at Pim-1 was no less than 7.00 each time.
With `N[C@H]1CCCN(c2c(NC(=O)c3csc(-c4c(F)cccc4F)n3)cnc3[nH]ccc23)C1` [Example 8, N-{4-[(3S)-3-Aminopiperidin-1-yl]-1H-pyrrolo[2,3-b]pyridin-5-yl}-2-(2,6-difluorophenyl)-1,3-thiazole-4-carboxamide], the negative-log IC50 (pIC50) on Pim-2 is less than 5.70; at Pim-3, no less than 7.00; on Pim-1 it was no less than 7.00.
Regarding `C[C@H]1CN(c2c(NC(=O)c3ccc(F)c(-c4c(F)cccc4F)n3)cnc3c2CCC3O)C[C@@H](N)[C@@H]1O` (mixture of isomers) [Example 37, N-{4-[(3R,4R,5S)-3-Amino-4-hydroxy-5-methylpiperidin-1-yl]-7-hydroxy-6,7-dihydro-5H-cyclopenta[b]pyridin-3-yl}-6-(2,6-difluorophenyl)-5-fluoropyridine-2-carboxamide], the pIC50 on Pim-2, at Pim-3 and at Pim-1 was no less than 7.00 in each case.
`C[C@@H]1C[C@H](N)CN(c2c(NC(=O)c3ccc(F)c(-c4c(F)cc([S+](C)[O-])cc4F)n3)cnc3c2CCC3O)C1` (single isomer, unassigned) [60 (Diastereoisomer 1)]: the pIC50 on Pim-2 is 6.00 to 7.00; on Pim-3 it was no less than 7.00; at Pim-1, no less than 7.00.

In general, pIC50 refers to −log10 of the IC50, conventionally taken in molar units.
